In patent publication US11214835B1, “Methods and compositions for diagnosis and management of neurodegerative diseases” (UNIVERSITY OF SOUTH FLORIDA, priority 2017, dated 2022):

Key:
GAS5 [1] = test: Binding of side-chain derivatives to GAS5 (preliminary data)
GAS5 [2] = test: Uptake and GAS5 levels in primary neuronal cells (NC) by qPCR; assay type: cell-based, mouse; conditions: 10 nM
HT22 cells = test: Toxicity of side-chain derivatives to HT22 cells (preliminary data)
GAS5 [3] = test: Hippocampal GAS5 levels after intranasal administration to C57BL/6 mice; assay type: in vivo, mouse; conditions: 10 nM in 10 μl, about 48 h
Source text: Separately, NPG567 or other compounds can be administered by intranasal delivery (APP/PS1 beginning at either 6 months of age (preventive) or 12 months of age (therapeutic); dose repeated alternate days; Tg4510 beginning at either 3 months of age (preventive) or 8 months of age (therapeutic); alternate days. See FIG. 25B for a schematic of the experimental protocol. The treatment efficacy for the two modes of delivery at timeframes as shown in FIGS. 25A and 25B and described herein. Intranasal delivery is a noninvasive method that bypasses the blood-brain barrier and delivers the drug to the brain and the spinal cord, thereby avoiding any systemic side effects. […] Brain tissue was harvested after about 48 h.

GAS5 transcript = test: RNA-EMSA (REMSA) of compound binding to biotin-labeled GAS5 transcript; conditions: 0.1 nM biotin-labeled GAS5, 10 nM compound, yeast tRNA, 20 min at room temperature
Protocol: RNA-EMSA was performed as previously described (see e.g. Apostolatos, H., Apostolatos, A., Vickers, T., Watson, J. E., Song, S., Vale, F., Cooper, D. R., Sanchez-Ramos, J., and Patel, N. A. (2010) Vitamin A metabolite, all-trans-retinoic acid, mediates alternative splicing of protein kinase C deltaVIII (PKCdeltaVIII) isoform via splicing factor SC35. J Biol Chem 285, 25987-25995 and Patel, R. S., Carter, G., Cooper, D. R., Apostolatos, H., and Patel, N. A. (2014) Transformer 2beta homolog (Drosophila) (TRA2B) regulates protein kinase C deltaI (PKCdeltaI) splice variant expression during 3T3L1 preadipocyte cell cycle. J Biol Chem 289, 31662-31672
Briefly, GAS5 was cloned in TOPO vector which has the T7 promoter. […] 0.1 nM of transcribed, biotin-labeled GAS5 was incubated with 10 nM G5-1397 in presence of 10U yeast tRNA and 10 units of RNase inhibitor in a final volume of 10 μl of RNA shift buffer for 20 min at room temperature and detected using Biotin Chromogenic Detection kit (ThermoFisher). […]
As the compound(s) were designed to bind to GAS5 such that it would disrupt binding to UPF1, the compound(s) ability to bind to GAS5 was examined. […] Next, it was evaluated whether NPG567 could stabilize GAS5 in HT22 cells over-expressing UPF1 (from Addgene). […] GAS5 levels were measured using SYBR Green qPCR. […]

DM adipocytes = test: Cell viability / toxicity in DM adipocytes; assay type: cell-based, human; conditions: 20 nM, 24 hours
GAS5 [4] = test: GAS5 levels in DM adipocytes by SYBR Green qPCR; assay type: cell-based, human; conditions: 20 nM, 24 hours
Protocol: DM adipocytes were treated with G5-1397 (20 nM) for about 24 hours. GAS5 levels were measured using SYBR Green qPCR.
Depletion of GAS5 decreases glucose uptake: Adipose tissue is the primary target for insulin-mediated glucose uptake. […] To maintain reproducibility over a larger number of experiments, adipose stem cells derived from normal or diabetic patients were purchased from Zenbio (BMI 20-24, Nondiabetic HbA1C 5.9 (hereafter referred as NDM); T2DM HbA1c 8.5 (hereafter referred as DM)). The adipose stem cells (ASC) were differentiated in vitro to mature adipocytes and used in experiments. GAS5 siRNA (10 nM, Ambion 332778, validated; scrambled siRNA as control) was transfected in NDM pre-adipocytes for 48 h, differentiated to mature NDM adipocytes for 8 days and knockdown confirmed by GAS5 SYBR Green qPCR. We determined the effect of GAS5 depletion on glucose uptake by NDM adipocytes. Cells were serum starved, 10 nM insulin was added to cells for 30 minutes and [^3H]-deoxy-2-D-Glucose uptake was measured. Results indicated a decrease in glucose uptake in GAS5 depleted NDM adipocytes ***p<0.001, highly significant using two-tailed students t-test.
Compound NPG5-C86 can increase GAS5 levels in diabetic adipocytes: Next, it was evaluated whether NPG5-C86 could stabilize GAS5 in diabetic adipocytes. […] GAS5 levels were measured using SYBR Green qPCR.

| SMILES | binding to GAS5 (GAS5 [1]) | uptake by NC (GAS5 [2]; primary neuronal cells) | GAS5 levels in NC (GAS5 [2]; qPCR, control set as reference) | toxicity to HT22 cells (HT22 cells) | GAS5 levels in the hippocampus (GAS5 [3]) | binding to GAS5 transcript in RNA-EMSA (GAS5 transcript) | cell toxicity in DM adipocytes (DM adipocytes) | GAS5 levels in DM adipocytes (GAS5 [4]) |
| --- | --- | --- | --- | --- | --- | --- | --- | --- |
| NCCCC[C@H]1CN(C(=O)CCc2ccccc2)CC(=O)N[C@@H](CCC(=O)O)CN(CC(N)=O)C(=O)CCSCc2ccc(cc2)C(=O)N[C@@H](CCC(=O)O)CN(C(=O)CCC(=O)O)CC(=O)N[C@@H](CCCCN)CN(C(=O)CCCN)CC(=O)N1 [NPG567] | bound efficiently to GAS5 | efficiently taken up by NC | increase GAS5 | not toxic to HT22 cells | increased GAS5 levels in the hippocampus | can bind to GAS5 transcript | – | – |
| CC(C)C[C@H]1CN(C(=O)CC2CC2)CC(=O)N[C@@H](CCCCN)CN(C(=O)CCc2ccccc2)CC(=O)N[C@@H](Cc2ccccc2)CN(CC(N)=O)C(=O)CCSCc2ccc(cc2)C(=O)N[C@@H](Cc2ccccc2)CN(C(=O)CC2CC2)CC(=O)N1 [Formula G5-1397] | – | – | – | – | – | bound to GAS5 transcript | without causing cell toxicity | substantially increases GAS5 levels |
